According to the NIST ThermoML archive (doi:10.1016/j.fluid.2013.01.003):
Numbers after ± are expanded uncertainties.

Details: 101.33 kPa, Liquid; for electrical conductivity: Alternating current cell with electrodes; for viscosity: Falling or rolling sphere viscometry; for mass density: Vibrating tube method

Compound: O=S(=O)([N-]S(=O)(=O)C(F)(F)F)C(F)(F)F.OCC[n+]1ccccc1
- electrical conductivity (273.15 K): 0.0435 ± 0.04 S/m
- viscosity (273.15 K): 645 ± 56 mPa·s
- mass density (273.15 K): 1614.7 ± 0.8 kg/m3
- electrical conductivity (278.15 K): 0.0655 ± 0.04 S/m
- viscosity (278.15 K): 421.9 ± 30 mPa·s
- mass density (278.15 K): 1609.2 ± 0.8 kg/m3
- electrical conductivity (283.15 K): 0.0945 ± 0.04 S/m
- viscosity (283.15 K): 285.8 ± 17 mPa·s
- mass density (283.15 K): 1604 ± 0.8 kg/m3
- electrical conductivity (288.15 K): 0.132 ± 0.04 S/m
- viscosity (288.15 K): 200.9 ± 9.5 mPa·s
- mass density (288.15 K): 1599.44 ± 0.78 kg/m3
- electrical conductivity (293.15 K): 0.178 ± 0.04 S/m
- viscosity (293.15 K): 145.7 ± 5.3 mPa·s
- mass density (293.15 K): 1594.47 ± 0.77 kg/m3
- electrical conductivity (298.15 K): 0.233 ± 0.04 S/m
- viscosity (298.15 K): 108.7 ± 2.9 mPa·s
- mass density (298.15 K): 1589.51 ± 0.77 kg/m3
- electrical conductivity (303.15 K): 0.299 ± 0.04 S/m
- viscosity (303.15 K): 83.19 ± 1.5 mPa·s
- mass density (303.15 K): 1584.59 ± 0.76 kg/m3
- electrical conductivity (313.15 K): 0.461 ± 0.04 S/m
- viscosity (313.15 K): 52.03 ± 0.28 mPa·s
- mass density (313.15 K): 1574.82 ± 0.75 kg/m3
- electrical conductivity (323.15 K): 0.668 ± 0.04 S/m
- viscosity (323.15 K): 34.91 ± 0.32 mPa·s
- mass density (323.15 K): 1565.16 ± 0.74 kg/m3
- electrical conductivity (333.15 K): 0.912 ± 0.04 S/m
- viscosity (333.15 K): 24.77 ± 0.23 mPa·s
- mass density (333.15 K): 1555.59 ± 0.73 kg/m3
- electrical conductivity (343.15 K): 1.2 ± 0.04 S/m
- viscosity (343.15 K): 18.37 ± 0.17 mPa·s
- mass density (343.15 K): 1546.08 ± 0.72 kg/m3
- electrical conductivity (353.15 K): 1.52 ± 0.04 S/m
- viscosity (353.15 K): 14.12 ± 0.13 mPa·s
- mass density (353.15 K): 1536.66 ± 0.71 kg/m3
- viscosity (363.15 K): 11.18 ± 0.11 mPa·s
- mass density (363.15 K): 1527.29 ± 0.7 kg/m3
